According to patent publication US20120121591A1 (priority 2009, published 2012):

Assays:
Type in all cases: cell-based
hKv1.3 = hKv1.3 (Homo sapiens, UniProt P22001); experiment: cell-based; conditions: Kv1.3 (IWQ) IC50 (nM, Avg)
[1] = test system: IL-2 secretion from T cells in human whole blood; conditions: read-out: WB (IL-2) IC50 (nM, Avg)
[2] = test system: IFN-g secretion from T cells in human whole blood; conditions: read-out: WB (IFNg) IC50 (nM, Avg)

hKv1.3, sequence (P22001 whole entry): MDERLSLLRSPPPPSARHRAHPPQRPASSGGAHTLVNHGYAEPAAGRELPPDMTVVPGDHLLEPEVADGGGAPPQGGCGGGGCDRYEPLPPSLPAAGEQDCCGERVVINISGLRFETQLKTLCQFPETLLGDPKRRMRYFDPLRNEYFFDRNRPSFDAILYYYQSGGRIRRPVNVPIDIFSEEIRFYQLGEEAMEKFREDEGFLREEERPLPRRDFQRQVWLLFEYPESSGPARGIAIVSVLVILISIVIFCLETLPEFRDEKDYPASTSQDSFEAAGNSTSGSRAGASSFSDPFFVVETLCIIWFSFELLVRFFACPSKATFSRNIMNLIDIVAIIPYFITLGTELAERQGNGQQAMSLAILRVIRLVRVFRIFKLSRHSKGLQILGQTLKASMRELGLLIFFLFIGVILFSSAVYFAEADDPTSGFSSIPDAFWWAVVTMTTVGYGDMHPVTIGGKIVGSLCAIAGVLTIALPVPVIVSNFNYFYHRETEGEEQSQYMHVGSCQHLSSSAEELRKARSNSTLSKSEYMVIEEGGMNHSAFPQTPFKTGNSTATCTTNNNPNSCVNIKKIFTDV

Row | Compound | IC50 (hKv1.3) | IC50 [1] | IC50 [2]
1 | CCC[C@@H]1NC(=O)[C@H](CO)NC(=O)[C@H](Cc2c[nH]cn2)NC(=O)[C@H](CCCCN)NC(=O)[C@@H]2CSSC[C@@H]3NC(=O)[C@H]([C@@H](C)O)NC(=O)[C@H](CCCCN)NC(=O)[C@H](CCCNC(=N)N)NC(=O)[C@H](CSSC[C@H](NC(=O)[C@H](CCCNC(=N)N)NC(=O)[C@H](CO)NC(=O)[C@H](CCCCN)NC(=O)[C@@H]4CCCN4C(=O)[C@H]([C@@H](C)CC)NC(=O)[C@H]([C@@H](C)O)NC(=O)[C@H](CC(=O)O)NC(=O)[C@H]([C@@H](C)CC)NC(=O)[C@@H](NC(=O)[C@H](CO)NC(=O)[C@@H](N)CCCNC(=N)N)CSSC[C@@H](C(=O)NC(C)(C)C(N)=O)NC(=O)[C@H]([C@@H](C)O)NC(=O)CNC3=O)C(=O)N[C@@H]([C@@H](C)O)C(=O)N[C@@H](C)C(=O)N[C@@H](Cc3ccccc3)C(=O)N[C@@H](CCCCN)C(=O)N2)NC(=O)[C@H](Cc2ccccc2)NC(=O)[C@H](CO)NC(=O)[C@H](CC(C)C)NC(=O)[C@H](CCCNC(=N)N)NC(=O)[C@H](Cc2ccc(O)cc2)NC(=O)[C@H](CCCCN)NC1=O [[Lys16,Nva21]ShK-Aib-amide] | 0.03 nM | 0.483 nM | 0.722 nM
2 | CCC[C@@H]1NC(=O)[C@H](CO)NC(=O)[C@H](Cc2c[nH]cn2)NC(=O)[C@H](CCCCN)NC(=O)[C@@H]2CSSC[C@@H]3NC(=O)[C@H]([C@@H](C)O)NC(=O)[C@H](CCCCN)NC(=O)[C@H](CCCNC(=N)N)NC(=O)[C@H](CSSC[C@H](NC(=O)[C@H](CCCNC(=N)N)NC(=O)[C@H](CO)NC(=O)[C@H](CCCCN)NC(=O)[C@@H]4CCCN4C(=O)[C@H]([C@@H](C)CC)NC(=O)[C@H]([C@@H](C)O)NC(=O)[C@H](CC(=O)O)NC(=O)[C@H]([C@@H](C)CC)NC(=O)[C@@H](NC(=O)[C@H](CO)NC(=O)[C@@H](N)CCCNC(=N)N)CSSC[C@@H](C(=O)N[C@H](C(N)=O)[C@@H](C)O)NC(=O)[C@H]([C@@H](C)O)NC(=O)CNC3=O)C(=O)N[C@@H]([C@@H](C)O)C(=O)N[C@@H](C)C(=O)N[C@@H](Cc3ccccc3)C(=O)N[C@@H](CCCCN)C(=O)N2)NC(=O)[C@H](Cc2ccccc2)NC(=O)[C@H](CO)NC(=O)[C@H](CC(C)C)NC(=O)[C@H](CCCNC(=N)N)NC(=O)[C@H](Cc2ccc(O)cc2)NC(=O)[C@H](CCCCN)NC1=O [[Lys16,Nva21]ShK-Thr-amide] | 0.03 nM | 0.385 nM | 0.702 nM
3 | CC[C@H](C)[C@@H]1NC(=O)[C@@H](NC(=O)[C@H](CO)NC(=O)[C@@H](N)CCCNC(=N)N)CSSC[C@@H](C(=O)O)NC(=O)[C@H]([C@@H](C)O)NC(=O)CNC(=O)[C@@H]2CSSC[C@@H]3NC(=O)[C@H](CCC(N)=O)NC(=O)[C@H](Cc4ccccc4)NC(=O)[C@H](C)NC(=O)[C@H]([C@@H](C)O)NC(=O)[C@H](CSSC[C@H](NC(=O)[C@H](Cc4ccccc4)NC(=O)[C@H](CO)NC(=O)[C@H](CC(C)C)NC(=O)[C@H](CCCNC(=N)N)NC(=O)[C@H](Cc4ccc(O)cc4)NC(=O)[C@H](CCCCN)NC(=O)[C@H](CCSC)NC(=O)[C@H](CO)NC(=O)[C@H](Cc4c[nH]cn4)NC(=O)[C@H](CCCCN)NC3=O)C(=O)N[C@@H](CCCNC(=N)N)C(=O)N[C@@H](CCCCN)C(=O)N[C@@H]([C@@H](C)O)C(=O)N2)NC(=O)[C@H](CCCNC(=N)N)NC(=O)[C@H](CO)NC(=O)[C@H](CCCNC(=N)N)NC(=O)[C@@H]2CCCN2C(=O)[C@H]([C@@H](C)CC)NC(=O)[C@H]([C@@H](C)O)NC(=O)[C@H](CC(=O)O)NC1=O [[Arg9]ShK] | 0.096 nM | 0.108 nM | 0.116 nM
4 | CCCC[C@@H]1NC(=O)[C@H](CO)NC(=O)[C@H](Cc2c[nH]cn2)NC(=O)[C@H](CCCCN)NC(=O)[C@@H]2CSSC[C@@H]3NC(=O)[C@H]([C@@H](C)O)NC(=O)[C@H](CCCNC(=N)N)NC(=O)[C@H](CCCNC(=N)N)NC(=O)[C@H](CSSC[C@H](NC(=O)[C@H](CCCNC(=N)N)NC(=O)[C@H](CO)NC(=O)[C@H](CCCCN)NC(=O)[C@@H]4CCCN4C(=O)[C@H]([C@@H](C)CC)NC(=O)[C@H]([C@@H](C)O)NC(=O)[C@H](CC(=O)O)NC(=O)[C@H]([C@@H](C)CC)NC(=O)[C@@H](NC(=O)[C@H](CO)NC(=O)[C@@H](N)CCCNC(=N)N)CSSC[C@@H](C(N)=O)NC(=O)[C@H]([C@@H](C)O)NC(=O)CNC3=O)C(=O)N[C@@H]([C@@H](C)O)C(=O)N[C@@H](C)C(=O)N[C@@H](C)C(=O)N[C@@H](CCCCN)C(=O)N2)NC(=O)[C@H](Cc2ccccc2)NC(=O)[C@H](CO)NC(=O)[C@H](CC(C)C)NC(=O)[C@H](CCCNC(=N)N)NC(=O)[C@H](Cc2ccc(O)cc2)NC(=O)[C@H](CCCCN)NC1=O [[Ala15, Lys16, Nle21,Arg30]ShK-amide] | 0.329 nM | 1.35 nM | 1.71 nM
5 | CC[C@H](C)[C@@H]1NC(=O)[C@@H](NC(=O)[C@H](CO)NC(=O)[C@@H](N)CCCNC(=N)N)CSSC[C@@H](C(=O)O)NC(=O)[C@H]([C@@H](C)O)NC(=O)CNC(=O)[C@@H]2CSSC[C@@H]3NC(=O)[C@H](CCC(N)=O)NC(=O)[C@H](Cc4ccccc4)NC(=O)[C@H](C)NC(=O)[C@H]([C@@H](C)O)NC(=O)[C@H](CSSC[C@H](NC(=O)[C@H](Cc4ccccc4)NC(=O)[C@H](CO)NC(=O)[C@H](CC(C)C)NC(=O)[C@H](CCCNC(=N)N)NC(=O)[C@H](Cc4ccc(O)cc4)NC(=O)[C@H](CCCCN)NC(=O)[C@H](Cc4cccc5ccccc45)NC(=O)[C@H](CO)NC(=O)[C@H](Cc4c[nH]cn4)NC(=O)[C@H](CCCCN)NC3=O)C(=O)N[C@@H](CCCNC(=N)N)C(=O)N[C@@H](CCCCN)C(=O)N[C@@H]([C@@H](C)O)C(=O)N2)NC(=O)[C@H](CCCNC(=N)N)NC(=O)[C@H](CO)NC(=O)[C@H](CCCCN)NC(=O)[C@@H]2CCCN2C(=O)[C@H]([C@@H](C)CC)NC(=O)[C@H]([C@@H](C)O)NC(=O)[C@H](CC(=O)O)NC1=O [[1-Nal21]ShK] | 0.669 nM | 6.59 nM | 8.13 nM
6 | CC[C@H](C)[C@@H]1NC(=O)[C@@H](NC(=O)[C@H](CCCCN)NC(=O)[C@@H](N)CCCNC(=N)N)CSSC[C@@H](C(=O)O)NC(=O)[C@H]([C@@H](C)O)NC(=O)CNC(=O)[C@@H]2CSSC[C@@H]3NC(=O)[C@H](CCC(N)=O)NC(=O)[C@H](Cc4ccccc4)NC(=O)[C@H](C)NC(=O)[C@H]([C@@H](C)O)NC(=O)[C@H](CSSC[C@H](NC(=O)[C@H](Cc4ccccc4)NC(=O)[C@H](CO)NC(=O)[C@H](CC(C)C)NC(=O)[C@H](CCCNC(=N)N)NC(=O)[C@H](Cc4ccc(O)cc4)NC(=O)[C@H](CCCCN)NC(=O)[C@H](CCSC)NC(=O)[C@H](CO)NC(=O)[C@H](Cc4c[nH]cn4)NC(=O)[C@H](CCCCN)NC3=O)C(=O)N[C@@H](CCCNC(=N)N)C(=O)N[C@@H](CCCCN)C(=O)N[C@@H]([C@@H](C)O)C(=O)N2)NC(=O)[C@H](CCCNC(=N)N)NC(=O)[C@H](CO)NC(=O)[C@H](CCCCN)NC(=O)[C@@H]2CCCN2C(=O)[C@H]([C@@H](C)CC)NC(=O)[C@H]([C@@H](C)O)NC(=O)[C@H](CC(=O)O)NC1=O [[Lys2]ShK] | 0.149 nM | 0.099 nM | 0.093 nM
7 | CC[C@H](C)[C@@H]1NC(=O)[C@@H](NC(=O)[C@H](CO)NC(=O)[C@@H](N)CCCNC(=N)N)CSSC[C@@H](C(N)=O)NC(=O)[C@H]([C@@H](C)O)NC(=O)CNC(=O)[C@@H]2CSSC[C@@H]3NC(=O)[C@H](CCCCN)NC(=O)[C@H](Cc4ccccc4)NC(=O)[C@H](C)NC(=O)[C@H]([C@@H](C)O)NC(=O)[C@H](CSSC[C@H](NC(=O)[C@H](Cc4cccc5ccccc45)NC(=O)[C@H](CO)NC(=O)[C@H](CC(C)C)NC(=O)[C@H](CCCNC(=N)N)NC(=O)[C@H](Cc4ccc(O)cc4)NC(=O)[C@H](CCCCN)NC(=O)[C@H](CCSC)NC(=O)[C@H](CO)NC(=O)[C@H](Cc4c[nH]cn4)NC(=O)[C@H](CCCCN)NC3=O)C(=O)N[C@@H](CCCNC(=N)N)C(=O)N[C@@H](CCCCN)C(=O)N[C@@H]([C@@H](C)O)C(=O)N2)NC(=O)[C@H](CCCNC(=N)N)NC(=O)[C@H](CO)NC(=O)[C@H](CCCCN)NC(=O)[C@@H]2CCCN2C(=O)[C@H]([C@@H](C)CC)NC(=O)[C@H]([C@@H](C)O)NC(=O)[C@H](CC(=O)O)NC1=O [[Lys16,1-Na127]ShK-amide] | 0.299 nM | 3.95 nM | 2.94 nM
8 | CC[C@H](C)[C@@H]1NC(=O)[C@@H](NC(=O)[C@H](CO)NC(=O)[C@@H](N)CCCNC(=N)N)CSSC[C@@H](C(=O)O)NC(=O)[C@H]([C@@H](C)O)NC(=O)CNC(=O)[C@@H]2CSSC[C@@H]3NC(=O)[C@H](CCCCN)NC(=O)[C@H](C)NC(=O)[C@H](C)NC(=O)[C@H]([C@@H](C)O)NC(=O)[C@H](CSSC[C@H](NC(=O)[C@H](Cc4ccccc4)NC(=O)[C@H](CO)NC(=O)[C@H](CC(C)C)NC(=O)[C@H](CCCNC(=N)N)NC(=O)[C@H](Cc4ccc(O)cc4)NC(=O)[C@H](CCCCN)NC(=O)[C@H](CCSC)NC(=O)[C@H](CO)NC(=O)[C@H](Cc4c[nH]cn4)NC(=O)[C@H](CCCCN)NC3=O)C(=O)N[C@@H](CCCNC(=N)N)C(=O)N[C@@H](CCCCN)C(=O)N[C@@H]([C@@H](C)O)C(=O)N2)NC(=O)[C@H](CCCNC(=N)N)NC(=O)[C@H](CO)NC(=O)[C@H](CCCCN)NC(=O)[C@@H]2CCCN2C(=O)[C@H]([C@@H](C)CC)NC(=O)[C@H]([C@@H](C)O)NC(=O)[C@H](CC(=O)O)NC1=O [[Ala15, Lys16]ShK] | 0.96 nM | 0.057 nM | 0.052 nM
